Test results from patent publication US20250195513A1, “DEGRADATION OF IRAK4 BY CONJUGATION OF IRAK4 INHIBITORS WITH E3 LIGASE LIGAND AND METHODS OF USE” (BeiGene, Ltd., priority 2022, published 2025).
pIC50: −log10 of the molar value.

Experiments:
Assay type in all cases: cell-based
IRAK4 [1] = biological target: T1, IRAK4 (Homo sapiens, UniProt Q9NWZ3); experiment: IRAK4 Degradation Assay (Karpas299, HTRF/TR-FRET); settings: Karpas-299 cells; for Dmax: maximum percentage of degradation
T1 construct: endogenous in cells; host or cells: Karpas299
T1 sequence (Q9NWZ3 1-460): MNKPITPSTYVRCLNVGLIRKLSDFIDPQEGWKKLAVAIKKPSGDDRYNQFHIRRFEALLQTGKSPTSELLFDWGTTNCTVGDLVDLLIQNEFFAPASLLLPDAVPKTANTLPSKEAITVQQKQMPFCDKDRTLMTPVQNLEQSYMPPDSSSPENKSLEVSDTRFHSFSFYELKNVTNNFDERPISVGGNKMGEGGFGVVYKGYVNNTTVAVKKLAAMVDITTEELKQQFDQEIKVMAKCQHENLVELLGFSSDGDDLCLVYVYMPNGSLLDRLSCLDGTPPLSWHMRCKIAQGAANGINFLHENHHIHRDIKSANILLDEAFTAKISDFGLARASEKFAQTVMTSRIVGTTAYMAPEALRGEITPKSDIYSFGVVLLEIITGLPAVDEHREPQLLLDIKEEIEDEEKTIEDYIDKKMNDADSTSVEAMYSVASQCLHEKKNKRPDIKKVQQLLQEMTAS
Summary of the method: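 Compound potency as DC50 (IC50) came from four-parameter fits of percent IRAK4 degradation. IRAK4 was measured by HTRF (665/620 nm) in lysates of Karpas299 cells seeded at 0.2 million per well. Cells had been treated with compound dilutions for 5 or 24 h.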

[2] = tested on: TNF-α production in THP-1 cells; experiment: TNF-α Production Assay in THP-1 Cells (LPS stimulated); settings: Homo sapiens, THP-1, 24 h
Summary of the method: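 Cells (0.2 million/well) pretreated with compounds for 24 h, then stimulated with LPS at 1 μg/mL final for 24 h. TNF-α in culture supernatant quantified by TR-FRET immunoassay.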

IRAK4 [3] = biological target: T1, IRAK4; experiment: IRAK4 Degradation Assay with Human Serum (Karpas299, HTRF/TR-FRET); settings: Karpas-299 in human serum, 24 hrs treatment
Summary of the method: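 Remaining IRAK4 measured by TR-FRET immunoassay on lysates of Karpas299 cells exposed 24 h to compound dilution series in human serum AB. DC50 derived from a Hill-slope fit of % degradation versus concentration.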

[4] = tested on: IL-6 production in human PBMC; experiment: IL-6 Production Assay in Human PBMC (LPS stimulated); settings: Homo sapiens, 5 h
Summary of the method: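 Thawed PBMC were rested overnight at 37 °C, seeded at 0.2 million cells/well and pretreated with compounds for 24 h. They were then stimulated with LPS at 10 ng/mL for 5 h. IL-6 in the supernatant was quantified by TR-FRET.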

For CC(C)(O)c1cc2nn([C@H]3CC[C@H](N4CCN(C(=O)C5CN(c6cc(F)c([C@H]7CCC(=O)NC7=O)c(F)c6)C5)CC4)CC3)cc2cc1NC(=O)c1ccc2cc(C#N)cnn12 [Example 178, 3-cyano-N-(2-((1r,4r)-4-(4-(1-(4-((R)-2,6-dioxopiperidin-3-yl)-3,5-difluorophenyl)azetidine-3-carbonyl)piperazin-1-yl)cyclohexyl)-6-(2-hydroxypropan-2-yl)-2H-indazol-5-yl)pyrrolo[1,2-b]pyridazine-7-carboxamide], the Dmax (IRAK4 [1]; 5 h treatment, read-out: IRAK4 in Karpas-299 (5 h) Dmax (%)) was 97%, the DC50 (IRAK4 [1]; 5 h treatment, read-out: IRAK4 in Karpas-299 (5 h) DC50) was 0.6 nM and the Dmax (IRAK4 [1]; 24 h treatment, read-out: IRAK4 in Karpas-299 (24 h) Dmax (%)) was 98%. For the same molecule, the DC50 (IRAK4 [1]; 24 h treatment, read-out: IRAK4 in Karpas-299 (24 h) DC50) was 0.4 nM, the pIC50 [2] was 8.19 and the Emax ([2]; maximum inhibition, read-out: TNF-α (THP-1) 24 h IMax) was 92%. For the same molecule, the DC50 (IRAK4 [3]; read-out: IRAK4 degradtion with human serum assay DC50) was 17 nM, the Dmax (IRAK4 [3]; read-out: IRAK4 degradtion with human serum assay Dmax (%)) was 100% and the pIC50 [4] was 8.92. The Emax ([4]; maximum inhibition, read-out: IL-6 (PBMC) 5 h IMax) was 61%.
